Results on 24 compounds are retold here after patent US10023544B2, “Heterocyclic compound” (Takeda Pharmaceutical Company Limited, priority 2014, dated 2018).

Where a name gives a salt, the structure may show the parent alone.

One experiment deals with T1, Human recombinant enteropeptidase (Homo sapiens, UniProt P98073).
T1 construct: purchased ITSI-Biosciences, LLC #REN-260
T1 sequence (P98073 whole entry): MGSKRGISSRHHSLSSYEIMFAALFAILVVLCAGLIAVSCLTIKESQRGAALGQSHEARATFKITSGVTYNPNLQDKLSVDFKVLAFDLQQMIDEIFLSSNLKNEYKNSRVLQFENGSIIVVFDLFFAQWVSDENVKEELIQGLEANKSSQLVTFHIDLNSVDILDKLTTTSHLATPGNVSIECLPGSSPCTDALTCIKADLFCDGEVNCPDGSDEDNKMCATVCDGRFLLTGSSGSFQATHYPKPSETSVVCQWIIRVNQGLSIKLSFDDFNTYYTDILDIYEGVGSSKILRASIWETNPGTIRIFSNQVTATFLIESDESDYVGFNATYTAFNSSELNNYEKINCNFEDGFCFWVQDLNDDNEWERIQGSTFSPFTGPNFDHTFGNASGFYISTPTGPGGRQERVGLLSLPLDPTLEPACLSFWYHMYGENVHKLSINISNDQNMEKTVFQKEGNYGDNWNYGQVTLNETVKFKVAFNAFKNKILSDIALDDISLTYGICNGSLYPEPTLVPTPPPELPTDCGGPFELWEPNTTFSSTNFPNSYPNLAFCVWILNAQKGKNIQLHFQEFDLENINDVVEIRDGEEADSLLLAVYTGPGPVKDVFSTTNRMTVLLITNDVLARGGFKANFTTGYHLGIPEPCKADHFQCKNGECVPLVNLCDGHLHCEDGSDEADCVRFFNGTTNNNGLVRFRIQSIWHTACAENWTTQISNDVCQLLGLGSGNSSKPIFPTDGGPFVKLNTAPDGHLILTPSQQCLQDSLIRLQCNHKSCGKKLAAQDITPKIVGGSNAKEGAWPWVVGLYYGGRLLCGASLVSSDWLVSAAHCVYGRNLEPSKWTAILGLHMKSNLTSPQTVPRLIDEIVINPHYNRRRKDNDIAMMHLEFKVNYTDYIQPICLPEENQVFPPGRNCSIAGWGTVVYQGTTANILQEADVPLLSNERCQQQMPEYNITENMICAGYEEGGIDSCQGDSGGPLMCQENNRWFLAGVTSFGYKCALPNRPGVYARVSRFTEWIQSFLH
Description: Human enteropeptidase inhibitory activity. It is filed as biochemical. Particulars: 3.3 uM test compound; fluorescence intensity 2 hours after start of reaction; 3.3 µM. On the procedure:
Human recombinant enteropeptidase (#REN-260, ITSI-Biosciences, LLC) was diluted with an assay buffer (50 mM Tricine (pH 8.0), 0.01 (w/v) % Tween 20, 10 mM CaCl2) to prepare a 24 mU/mL enzyme solution. Subsequently, 5FAM-Abu-Gly-Asp-Asp-Asp-Lys-Ile-Val-Gly-Gly-Lys(CPQ2)-Lys-Lys-NH2 (purity: 97.2%, CPC Scientific, Inc.) produced according to a synthesis method known per se was diluted with an assay buffer to prepare a 2.1 uM (“u” represents “micro”) substrate solution. Each test compound was dissolved in DMSO to prepare a 1 mM solution, which was then diluted 100-fold with an assay buffer to prepare a compound solution. The compound solution (5 uL/well) and the substrate solution (5 uL/well) were added to a 384-well black plate (#784076, Greiner Bio-One) and mixed. Then, the enzyme solution (5 uL/well) was added to the plate and mixed to start reaction. The fluorescence intensity was measured at an excitation wavelength of 485 nm and a fluorescence wavelength of 535 nm using a fluorescence plate reader EnVision (PerkinElmer Inc.). Also, the same reaction as above was performed except that the test compound was not added (test compound non-supplemented group). In addition, the same reaction as above was performed except that neither the test compound nor the enzyme was added (control group). The inhibition rate was calculated from the fluorescence intensity 2 hours after the start of the reaction according to the following equation: Inhibition rate (%)=(1−(Fluorescence intensity of the test compound supplemented group−Fluorescence intensity of the control group)/(Fluorescence intensity of the test compound non-supplemented group−Fluorescence intensity of the control group))×100
Take `CC(C)(C)C1CCC(c2cc(OC(=O)c3ccc(NC(=N)N)cc3)cc(C3=NOC(CC(=O)O)(C(=O)O)C3)c2)CC1` (stereo not drawn) [Example 13, 3-(3-(4-tert-butylcyclohexyl)-5-((4-carbamimidamidobenzoyl)oxy)phenyl)-5-(carboxymethyl)-4,5-dihydro-1,2-oxazole-5-carboxylic acid (cis or trans form)]: the “Inhibition rate at 3.3 uM (%)” value is 100%.

The same experiment, now with this note: 3.3 uM test compound; fluorescence intensity 2 hours after start of reaction; read-out: Inhibition rate at 3.3 uM (%).
Turning to `N=C(N)Nc1ccc(C(=O)Oc2ccc(C3=NOC(CC(=O)O)(C(=O)O)C3)cc2)cc1` (stereo not drawn) [Example 2, 3-(4-((4-carba-mimidamidobenzoyl)oxy)phenyl)-5-(carboxymethyl)-4,5-dihydro-1,2-oxazole-5-carboxylic acid], the inhibition at 3.3 µM is 101%.

Consider `Cc1ccc(OC(=O)c2ccc(NC(=N)N)cc2)cc1C1=NOC(CC(=O)O)(C(=O)O)C1` (stereo not drawn) [Example 3, 3-(5-((4-Carbamimidamidobenzoyl)oxy)-2-methylphenyl)-5-(carboxymethyl)-4,5-dihydro-1,2-oxazole-5-carboxylic acid trifluoroacetate], for which the inhibition at 3.3 µM was 101%.

For the compound `N=C(N)Nc1ccc(C(=O)Oc2cccc(C3=NOC(CCC(=O)O)(CCC(=O)O)C3)c2)cc1` [Example 4, 3,3′-(3-(3-((4-carba-mimidamidobenzoyl)oxy)phenyl)-4,5-dihydro-1,2-oxazole-5,5-diyl)dipropanoic acid], the inhibition at 3.3 µM turned out to be 101%.

For `N=C(N)Nc1ccc(C(=O)Oc2cccc(C3=NOC(CC(=O)O)(CC(=O)O)C3)c2)cc1` [Example 6, 2,2′-(3-(3-((4-Carbamimidamidobenzoyl)oxy)phenyl)-4,5-dihydro-1,2-oxazole-5,5-diyl)diacetic acid], the inhibition at 3.3 µM turned out to be 100%.

Turning to `N=C(N)Nc1ccc(C(=O)Oc2ccc(C3CCN(C(=O)CCC(=O)O)CC3)c(C3=NOC(CC(=O)O)(CC(=O)O)C3)c2)cc1` [Example 7, 4-(4-(2-(5,5-Bis(carboxymethyl)-4,5-dihydro-1,2-oxazol-3-yl)-4-((4-carbamimidamidobenzoyl)oxy)phenyl)piperidin-1-yl)-4-oxobutanoic acid trifluoroacetate], the inhibition at 3.3 µM was 101%.

As for `N=C(N)Nc1ccc(C(=O)Oc2ccc(C3CCCCC3)c(C3=NOC(CC(=O)O)(C(=O)O)C3)c2)cc1` (stereo not drawn) [Example 8, 3-(5-((4-Carbamimidamidobenzoyl)oxy)-2-cyclohexylphenyl)-5-(carboxymethyl)-4,5-dihydro-1,2-oxazole-5-carboxylic acid trifluoroacetate], the inhibition at 3.3 µM is 101%.

In the case of `N=C(N)Nc1ccc(C(=O)Oc2ccc(-c3ccccc3)c(C3=NOC(CC(=O)O)(C(=O)O)C3)c2)cc1` (stereo not drawn) [Example 9, 3-(4-((4-carbamimidamidobenzoyl)oxy)biphenyl-2-yl)-5-(carboxymethyl)-4,5-dihydro-1,2-oxazole-5-carboxylic acid], the inhibition at 3.3 µM is 101%.

Take `CC(C)(C)C1CCC(c2ccc(OC(=O)c3ccc(NC(=N)N)cc3)cc2C2=NOC(CC(=O)O)(C(=O)O)C2)CC1` (stereo not drawn) [Example 10, 3-(2-(4-tert-butylcyclohexyl)-5-((4-carbamimidamidobenzoyl)oxy)phenyl)-5-(carboxymethyl)-4,5-dihydro-1,2-oxazole-5-carboxylic acid]: the inhibition at 3.3 µM came to 101%.

Turning to `Cc1cc(OC(=O)c2ccc(NC(=N)N)cc2)cc(C2=NOC(CC(=O)O)(C(=O)O)C2)c1` (stereo not drawn) [Example 11, 3-(3-((4-Carbamimidamidobenzoyl)oxy)-5-methylphenyl)-5-(carboxymethyl)-4,5-dihydro-1,2-oxazole-5-carboxylic acid trifluoroacetate], the inhibition at 3.3 µM came out at 100%.

Consider `CC(C)(C)C1CCC(c2cc(OC(=O)c3ccc(NC(=N)N)cc3)cc(C3=NOC(CC(=O)O)(C(=O)O)C3)c2)CC1` (stereo not drawn) [Example 12, 3-(3-(4-tert-butylcyclohexyl)-5-((4-carbamimidamidobenzoyl)oxy)phenyl)-5-(carboxymethyl)-4,5-dihydro-1,2-oxazole-5-carboxylic acid (trans or cis form)], for which the inhibition at 3.3 µM came out at 101%.

For the compound `N=C(N)Nc1ccc(C(=O)Oc2cc(CCC(=O)O)cc(C3=NOC(CC(=O)O)(C(=O)O)C3)c2)cc1` (stereo not drawn) [Example 14, 3-(3-((4-Carbamimidamidobenzoyl)oxy)-5-(2-carboxyethyl)phenyl)-5-(carboxymethyl)-4,5-dihydro-1,2-oxazole-5-carboxylic acid trifluoroacetate], the inhibition at 3.3 µM stood at 100%.

Regarding `N=C(N)Nc1ccc(C(=O)Oc2ccc(CCC(=O)O)c(C3=NOC(CC(=O)O)(C(=O)O)C3)c2)cc1` (stereo not drawn) [Example 15, 3-(5-((4-carbamimidamidobenzoyl)oxy)-2-(2-carboxyethyl)phenyl)-5-(carboxymethyl)-4,5-dihydro-1,2-oxazole-5-carboxylic acid], the inhibition at 3.3 µM was 101%.

As to `Cc1c(OC(=O)c2ccc(NC(=N)N)cc2)cccc1C1=NOC(CC(=O)O)(C(=O)O)C1` (stereo not drawn) [Example 16, 3-(3-((4-carbamimidamidobenzoyl)oxy)-2-methylphenyl)-5-(carboxymethyl)-4,5-dihydro-1,2-oxazole-5-carboxylic acid], the inhibition at 3.3 µM amounted to 100%.

Turning to `Cc1ccc(C2=NOC(CC(=O)O)(C(=O)O)C2)cc1OC(=O)c1ccc(NC(=N)N)cc1` (stereo not drawn) [Example 17, 3-(3-((4-carbamimidamidobenzoyl)oxy)-4-methylphenyl)-5-(carboxymethyl)-4,5-dihydro-1,2-oxazole-5-carboxylic acid], the inhibition at 3.3 µM stood at 87%.

Regarding `N=C(N)Nc1ccc(C(=O)Oc2ccc(CCC(=O)N[C@@H](CC(=O)O)C(=O)O)c(C3=NOC(CC(=O)O)(C(=O)O)C3)c2)cc1` (stereo partly drawn) [Example 18, N-(3-(4-((4-Carbamimidamidobenzoyl)oxy)-2-(5-carboxy-5-(carboxymethyl)-4,5-dihydro-1,2-oxazol-3-yl)phenyl)propanoyl)-L-aspartic acid trifluoroacetate], the inhibition at 3.3 µM amounted to 100%.

In the case of `N=C(N)Nc1ccc(C(=O)Oc2cc(CCC(=O)N[C@@H](CC(=O)O)C(=O)O)cc(C3=NOC(CC(=O)O)(C(=O)O)C3)c2)cc1` (stereo partly drawn) [Example 19, N-(3-(3-((4-carbamimidamidobenzoyl)oxy)-5-(5-carboxy-5-(carboxymethyl)-4,5-dihydro-1,2-oxazol-3-yl)phenyl)propanoyl)-L-aspartic acid], the inhibition at 3.3 µM is 101%.

Take `N=C(N)Nc1ccc(C(=O)Oc2ccc(CCC(=O)N[C@@H](CC(=O)O)C(=O)O)c(C3=NOC(CC(=O)O)(CC(=O)O)C3)c2)cc1` [Example 20, N-(3-(2-(5,5-bis(carboxymethyl)-4,5-dihydro-1,2-oxazol-3-yl)-4-((4-carbamimidamidobenzoyl)oxy)phenyl)propanoyl)-L-aspartic acid]: the inhibition at 3.3 µM was found to be 100%.

On to `N=C(N)Nc1ccc(C(=O)Oc2ccc(C3CCN(C(=O)CCC(=O)N[C@@H](CC(=O)O)C(=O)O)CC3)c(C3=NOC(CC(=O)O)(CC(=O)O)C3)c2)cc1` [Example 21, N-(4-(4-(2-(5,5-bis(carboxymethyl)-4,5-dihydro-1,2-oxazol-3-yl)-4-((4-carbamimidamidobenzoyl)oxy)phenyl)piperidin-1-yl)-4-oxobutanoyl)-L-aspartic acid], for which the inhibition at 3.3 µM turned out to be 100%.

Take `N=C(N)Nc1ccc(C(=O)Oc2ccc(C3CCN(CCC(=O)O)CC3)c(C3=NOC(CC(=O)O)(CC(=O)O)C3)c2)cc1` [Example 22, 3-(4-(2-(5,5-Bis(carboxymethyl)-4,5-dihydro-1,2-oxazol-3-yl)-4-((4-carbamimidamidobenzoyl)oxy)phenyl)piperidin-1-yl)propanoic acid ditrifluoroacetate]: the inhibition at 3.3 µM came out at 101%.

With `N=C(N)Nc1ccc(C(=O)Oc2cc(CCC(=O)N[C@@H](CC(=O)O)C(=O)O)cc(C3=NOC(CC(=O)O)(CC(=O)O)C3)c2)cc1` [Example 23, N-(3-(3-(5,5-bis(carboxymethyl)-4,5-dihydro-1,2-oxazol-3-yl)-5-((4-carbamimidamidobenzoyl)oxy)phenyl)propanoyl)-L-aspartic acid], the inhibition at 3.3 µM turned out to be 100%.

As to `N=C(N)Nc1ccc(C(=O)Oc2ccc(CCC(=O)O)c(C3=NOC(CC(=O)O)(CC(=O)O)C3)c2)cc1` [Example 24, 3-(2-(5,5-bis(carboxymethyl)-4,5-dihydro-1,2-oxazol-3-yl)-4-((4-carbamimidamidobenzoyl)oxy)phenyl)propanoic acid], the inhibition at 3.3 µM stood at 100%.

In the case of `N=C(N)Nc1ccc(C(=O)Oc2ccc(CCC(=O)N3CCS(=O)(=O)CC3)c(C3=NOC(CC(=O)O)(CC(=O)O)C3)c2)cc1` [Example 25, 2,2′-(3-(5-((4-Carbamimidamidobenzoyl)oxy)-2-(3-(1,1-dioxidothiomorpholin-4-yl)-3-oxopropyl)phenyl)-4,5-dihydro-1,2-oxazole-5,5-diyl)diacetic acid], the inhibition at 3.3 µM is 100%.

For `N=C(N)Nc1ccc(C(=O)Oc2ccc(CCC(=O)N3CCOCC3)c(C3=NOC(CC(=O)O)(CC(=O)O)C3)c2)cc1` [Example 26, 2,2′-(3-(5-((4-carbamimidamidobenzoyl)oxy)-2-(3-(morpholin-4-yl)-3-oxopropyl)phenyl)-4,5-dihydro-1,2-oxazole-5,5-diyl) diacetic acid], the inhibition at 3.3 µM came to 100%.

As usually defined, the inhibition is the relative decrease from the control value, in per cent.
